Reference: US20090226398A1, “ANTI-VIRAL COMPOUNDS, COMPOSITIONS, AND METHODS OF USE” (Genelabs Technologies, Inc., priority 2008, published 2009)

Test system: HCV replication
Assay: Replicon Assay (Huh-lucubineo-ET cells, luciferase readout)
Type: cell-based
Details: Hepatitis C virus; ET (Huh-lucubineo-ET) HCV replicon cell line; luciferase activity 48-72 hours after compound addition; 6 dilutions
Outline: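 Huh-lucubineo-ET cells stably carrying a firefly luciferase-ubiquitin-neo/NS3-5B ET replicon (adaptive mutations E1202G, T1280I, K1846T) were plated 24 h before compound, then treated at 5 or 50 μM or six 3-fold dilutions. Luciferase read 48-72 h later; % inhibition vs no-compound control, EC50/TC50 from Hill-equation fit.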

| SMILES | EC50 [µM] |
| --- | --- |
| Fc1cccc(-c2nc3cnn(Cc4ccc5sccc5c4)cc-3n2)c1F [Compound 284, 5-Benzothiophen-5-ylmethyl-2-(2,3-difluoro-phenyl)-5H-imidazo[4,5-d]pyridazine] | ≥ 50 |
| O=[N+]([O-])c1ccc(-c2ccc(Cn3cc4nc(-c5cccc(F)c5F)nc-4cn3)cn2)c(C(F)(F)F)c1 [Compound 285, 2-(2,3-Difluoro-phenyl)-5-[6-(4-nitro-2-trifluoromethyl-phenyl)-pyridin-3-ylmethyl]-5H-imidazo[4,5-d]pyridazine] | 0.284 |
| O=[N+]([O-])c1cc(C(F)(F)F)ccc1-c1ccc(Cn2cc3nc(-c4cccc(F)c4F)nc-3cn2)cn1 [Compound 286, 2-(2,3-Difluoro-phenyl)-5-[6-(2-nitro-4-trifluoromethyl-phenyl)-pyridin-3-ylmethyl]-5H-imidazo[4,5-d]pyridazine] | 0.059 |
| COc1cccc(Cn2cc3nc(-c4cccc(F)c4F)nc-3cn2)c1 [Compound 287, 2-(2,3-Difluoro-phenyl)-5-(3-methoxy-benzyl)-5H-imidazo[4,5-d]pyridazine] | ≥ 50 |
| COC(=O)c1cc(Cn2cc3nc(-c4cccc(F)c4F)nc-3cn2)ccc1-c1ccc(OC)cc1C(F)(F)F [Compound 288, 4-[2-(2,3-Difluoro-phenyl)-imidazo[4,5-d]pyridazin-5-ylmethyl]-4′-methoxy-2′-trifluoromethyl-biphenyl-2-carboxylic acid methyl ester] | 0.2 |
| Fc1cccc(-c2nc3cnn(Cc4cccc(C(F)(F)F)c4)cc-3n2)c1F [Compound 289, 2-(2,3-Difluoro-phenyl)-5-(3-trifluoromethyl-benzyl)-5H-imidazo[4,5-d]pyridazine] | ≥ 50 |
| O=[N+]([O-])c1cccc(Cn2cc3nc(-c4cccc(F)c4F)nc-3cn2)c1 [Compound 290, 2-(2,3-Difluoro-phenyl)-5-(3-nitro-benzyl)-5H-imidazo[4,5-d]pyridazine] | ≥ 50 |
| Fc1cccc(-c2nc3cnn(Cc4cccc(-n5cccn5)c4)cc-3n2)c1F [Compound 291, 2-(2,3-Difluoro-phenyl)-5-(3-pyrazol-1-yl-benzyl)-5H-imidazo[4,5-d]pyridazine] | ≥ 50 |
| Fc1cccc(-c2nc3cnn(Cc4cccc5ccccc45)cc-3n2)c1F [Compound 292, 2-(2,3-Difluoro-phenyl)-5-naphthalen-1-ylmethyl-5H-imidazo[4,5-d]pyridazine] | ≥ 50 |
| Fc1cccc(-c2nc3cnn(Cc4ccc(-c5cncnc5)cc4)cc-3n2)c1F [Compound 293, 2-(2,3-Difluoro-phenyl)-5-(4-pyrimidin-5-yl-benzyl)-5H-imidazo[4,5-d]pyridazine] | ≥ 50 |
| COc1ccc(-c2ccc(Cn3cc4nc(-c5cccc(F)c5F)nc-4cn3)c(OC)c2)c(C(F)(F)F)c1 [Compound 294, 2-(2,3-Difluoro-phenyl)-5-(3,4′-dimethoxy-2′-trifluoromethyl-biphenyl-4-ylmethyl)-5H-imidazo[4,5-d]pyridazine] | 0.473 |
| CCCOc1ccc(-c2cnc(Cn3cc4nc(-c5cccc(F)c5F)nc-4cn3)cn2)c(C(F)(F)F)c1 [Compound 295, 2-(2,3-Difluoro-phenyl)-5-[5-(4-propoxy-2-trifluoromethyl-phenyl)-pyrazin-2-ylmethyl]-5H-imidazo[4,5-d]pyridazine] | 0.026 |
| CCCOc1ccc(-c2ccc(Cn3cc4nc(-c5cccc(F)c5F)nc-4cn3)nc2)c(C(F)(F)F)c1 [Compound 296, 2-(2,3-Difluoro-phenyl)-5-[5-(4-propoxy-2-trifluoromethyl-phenyl)-pyridin-2-ylmethyl]-5H-imidazo[4,5-d]pyridazine] | 0.023 |
| Fc1ccc(COc2ccc(Cn3cc4nc(-c5cccc(F)c5F)nc-4cn3)cc2)cc1 [Compound 297, 2-(2,3-Difluoro-phenyl)-5-[4-(4-fluoro-benzyloxy)-benzyl]-5H-imidazo[4,5-d]pyridazine] | 5.74 |
| Fc1cccc(-c2nc3cnn(Cc4ccc(-c5ccc(Br)c(C(F)(F)F)c5)nc4)cc-3n2)c1F [Compound 298, 5-[6-(4-Bromo-3-trifluoromethyl-phenyl)-pyridin-3-ylmethyl]-2-(2,3-difluorophenyl)-5H-imidazo[4,5-d]pyridazine] | ≥ 50 |
| Fc1cccc(-c2nc3cnn(Cc4ccc(-c5ccccn5)cc4)cc-3n2)c1F [Compound 299, 2-(2,3-Difluoro-phenyl)-5-(4-pyridin-2-yl-benzyl)-5H-imidazo[4,5-d]pyridazine] | ≥ 50 |
| Fc1cccc(-c2nc3cnn(Cc4cccc(OC(F)(F)F)c4)cc-3n2)c1F [Compound 300, 2-(2,3-Difluoro-phenyl)-5-(3-trifluoromethoxy-benzyl)-5H-imidazo[4,5-d]pyridazine] | ≥ 50 |
| Fc1cccc(-c2nc3cnn(Cc4cccc(-c5ccncc5)c4)cc-3n2)c1F [Compound 301, 2-(2,3-Difluoro-phenyl)-5-(3-pyridin-4-yl-benzyl)-5H-imidazo[4,5-d]pyridazine] | 35 |

| SMILES | EC50 [µM] |
| --- | --- |
| Fc1cccc(-c2nc3cnn(Cc4ccc5ncccc5c4)cc-3n2)c1F [Compound 302, 6-[2-(2,3-Difluoro-phenyl)-imidazo[4,5-d]pyridazin-5-ylmethyl]-quinoline] | ≥ 50 |
| Fc1cccc(-c2nc3cnn(Cc4ccc(N5CCOCC5)cc4)cc-3n2)c1F [Compound 303, 2-(2,3-Difluoro-phenyl)-5-(4-morpholin-4-yl-benzyl)-5H-imidazo[4,5-d]pyridazine] | 8.53 |
| Fc1cccc(-c2nc3cnn(Cc4ccc(N5CCCCC5)cc4)cc-3n2)c1F [Compound 304, 2-(2,3-Difluoro-phenyl)-5-(4-piperidin-1-yl-benzyl)-5H-imidazo[4,5-d]pyridazine] | 3.87 |
| CC(c1ccc(-c2ccc(C(F)(F)F)cc2C(F)(F)F)cn1)n1cc2nc(-c3cccc(F)c3F)nc-2cn1 (stereo not drawn) [Compound 305, 5-{1-[5-(2,4-Bis-trifluoromethyl-phenyl)-pyridin-2-yl]-ethyl}-2-(2,3-difluoro-phenyl)-5H-imidazo[4,5-d]pyridazine] | 0.278 |
| COc1ccc(-c2cnc(Cn3cc4nc(-c5cccc(F)c5F)nc-4cn3)cn2)c(C(F)(F)F)c1 [Compound 306, 2-(2,3-Difluoro-phenyl)-5-[5-(4-methoxy-2-trifluoromethyl-phenyl)-pyrazin-2-ylmethyl]-5H-imidazo[4,5-d]pyridazine] | 0.023 |
| Fc1cccc(-c2nc3cnn(Cc4ccc(Cl)nn4)cc-3n2)c1F [Compound 307, 5-(6-Chloro-pyridazin-3-ylmethyl)-2-(2,3-difluoro-phenyl)-5H-imidazo[4,5-d]pyridazine] | ≥ 50 |
| Fc1cccc(-c2nc3cnn(Cc4ccc(-n5cccn5)cc4)cc-3n2)c1F [Compound 308, 2-(2,3-Difluoro-phenyl)-5-(4-pyrazol-1-yl-benzyl)-5H-imidazo[4,5-d]pyridazine] | ≥ 50 |
| Fc1cc(Cn2cc3nc(-c4cccc(F)c4F)nc-3cn2)ccc1Br [Compound 309, 5-(4-Bromo-3-fluoro-benzyl)-2-(2,3-difluoro-phenyl)-5H-imidazo[4,5-d]pyridazine] | 61 |
| COc1ccc(-c2ccc(Cn3cc4nc(-c5cccc(F)c5F)nc-4cn3)nc2[N+](=O)[O-])c(C(F)(F)F)c1 [Compound 310, 2-(2,3-Difluoro-phenyl)-5-[5-(4-methoxy-2-trifluoromethyl-phenyl)-6-nitro-pyridin-2-ylmethyl]-5H-imidazo[4,5-d]pyridazine] | 0.762 |
| O=[N+]([O-])c1cc(Cn2cc3nc(-c4cccc(F)c4F)nc-3cn2)ccc1Br [Compound 311, 5-(4-Bromo-3-nitro-benzyl)-2-(2,3-difluoro-phenyl)-5H-imidazo[4,5-d]pyridazine] | 6.54 |
| COC(=O)c1cc(Br)ccc1Cn1cc2nc(-c3cccc(F)c3F)nc-2cn1 [Compound 312, 5-Bromo-2-[2-(2,3-difluoro-phenyl)-imidazo[4,5-d]pyridazin-5-ylmethyl]-benzoic acid methyl ester] | ≥ 50 |
| Cc1noc(-c2ccc(Cn3cc4nc(-c5cccc(F)c5F)nc-4cn3)cc2)n1 [Compound 313, 2-(2,3-Difluoro-phenyl)-5-[4-(3-methyl-[1,2,4]oxadiazol-5-yl)-benzyl]-5H-imidazo[4,5-d]pyridazine] | ≥ 50 |
| Fc1cccc(-c2nc3cnn(Cc4ccc(Oc5ccccn5)cc4)cc-3n2)c1F [Compound 314, 2-(2,3-Difluoro-phenyl)-5-[4-(pyridin-2-yloxy)-benzyl]-5H-imidazo[4,5-d]pyridazine] | ≥ 50 |
| CCOc1ccc(-c2ccc(Cn3cc4nc(-c5ccccc5F)nc-4cn3)nn2)c(C(F)(F)F)c1 [Compound 315, 5-[6-(4-Ethoxy-2-trifluoromethyl-phenyl)-pyridazin-3-ylmethyl]-2-(2-fluoro-phenyl)-5H-imidazo[4,5-d]pyridazine] | 0.02 |
| CCCOc1ccc(-c2ccc(Cn3cc4nc(-c5ccccc5F)nc-4cn3)nn2)c(C(F)(F)F)c1 [Compound 316, 2-(2-Fluoro-phenyl)-5-[6-(4-propoxy-2-trifluoromethyl-phenyl)-pyridazin-3-ylmethyl]-5H-imidazo[4,5-d]pyridazine] | 0.032 |
| COc1ccc(-c2ccc(Cn3cc4nc(-c5ccccc5F)nc-4cn3)nn2)c(C(F)(F)F)c1 [Compound 317, 2-(2-Fluoro-phenyl)-5-[6-(4-methoxy-2-trifluoromethyl-phenyl)-pyridazin-3-ylmethyl]-5H-imidazo[4,5-d]pyridazine] | 0.064 |
| CC(=O)COc1ccc(-c2ccc(Cn3cc4nc(-c5cccc(F)c5F)nc-4cn3)nn2)c(C(F)(F)F)c1 [Compound 318, 1-(4-{6-[2-(2,3-Difluoro-phenyl)-imidazo[4,5-d]pyridazin-5-ylmethyl]-pyridazin-3-yl}-3-trifluoromethyl-phenoxy)-propan-2-one] | 0.663 |
| CC(O)COc1ccc(-c2ccc(Cn3cc4nc(-c5cccc(F)c5F)nc-4cn3)nn2)c(C(F)(F)F)c1 (stereo not drawn) [Compound 319, 1-(4-{6-[2-(2,3-Difluoro-phenyl)-imidazo[4,5-d]pyridazin-5-ylmethyl]-pyridazin-3-yl}-3-trifluoromethyl-phenoxy)-propan-2-ol] | 4.52 |
